The values that follow come from patent publication US9868763B2, “Modulators of protease activated receptors” (The University of Queensland, priority 2011, dated 2018).

For data set [1], the system named is 2furoyl-LIGRLO-NH2-induced paw oedema. The experiment in a line: PAR2 agonist-induced paw oedema. In kind it is in vivo, Wistar rat. The conditions noted are these: 10 mg/kg p.o. in olive oil, agonist 350 μg/paw 2 h after oral dose. Here is the method:
The methods used are based on those previously described (Kelso, E. B., et al. Arthritis Rheum 2007, 56, 765-71; Kelso, E. B., et al. J Pharmacol Exp Ther 2006, 316, 1017-24; and Vergnolle, N. J Immunol 1999, 163, 5064-9). Male Wistar rats (n=3 per group) are used. Briefly, rats are given either 5 or 10 mg/kg of a compound of the present invention (p.o. via gavage in olive oil, approx. 500 μL, weight adjusted). Control animals receive only olive oil (500 μL p.o.). Two hours later, the PAR2 agonist 2-furoyl-LIGRLO (350 μg/paw in saline, 100 μL) is injected into the plantar surface (i.pl.) of the right paw pad using a 30 G needle. The left paw acts as a control, receiving saline only. Paw thickness and width are measured after 30 minutes and hourly using digital calipers (World Precision Instruments, USA) and swelling is calculated in area (mm^2; thickness multiplied by width) and expressed as a percentage change from baseline of each individual paw.
Based on previous methods (Kelso E B et al., J Pharmacol Exp Ther 2006, 316(3):1017-24; Suen J Y et al., Br J Pharmacol 2011, doi: 10.1111/j.1476-5381.2011.01610.x.), PAR2 antagonist 52 (10 mg/kg s.c.; n=4), ENMD-1068 (100 mg/kg s.c.; n=4) or vehicle control (DMSO s.c.; n=2) were administered to male Wistar rats. Baseline paw thickness and width were measured using digital calipers (World Precision Instruments, USA) expressed in area (mm^2; thickness×width). Fifteen minutes later, 2Furoyl-LIGLRO-NH2 (350 μg/paw in 100 μL saline) was injected into of the right hind paw pad (intraplantar, i.pl.). The left hind paw acted as a control, receiving saline only. In a separate experiment, vehicle (500 μL olive oil) versus PAR2 antagonist 52 (10 mg/kg p.o. in 500 μL olive oil) only were administered orally to two groups of rats (4 per group). Two hours later, β-tryptase (human recombinant lung, 20 μg in 100 μL saline) was injected into the right hind paw pad (vehicle in left for control) of all animals in each group. In all experiments, paw swelling was measured and expressed in area (mm^2; thickness×width) and plotted as % change from baseline of each individual paw.

A short description of data set [2]: Stability in rat liver homogenate. The format is in vitro ADME, Wistar rat. The conditions noted are these: 37 °C, up to 180 min. Here is the method:
Blood and liver is collected form non-drug dosed male and female Wistar rats (aged 8-9 weeks, 200-250 g and 250-300 g respectively). Bloods are centrifuged at 8 K rpm for 5 min. Plasma are pooled and stored at −80° C. for later use. The rat livers are homogenized, diluted with three volumes of PBS, cloth filtered. The filtrate is used directly for stability studies.
Each compound is dissolved in DMSO to make 5 mM stock solution. 10 μL of the stock is diluted with either rat plasma or liver homogenate (490 μL) to make up a starting concentration of […] (triplicates). The mixtures are vortexed and incubated at 37° C. At each time point of 0, 30, 60 and 180 minutes, 100 μL of the mixture is taken and diluted with 300 μL of acetonitrile. The mixture is vortexed and centrifuged. 350 μL of the liquid is transferred into a microfuge tube and concentrated using a rotational vacuum concentrator (Christ Beta-RVC, supplied by Quantum Scientific). 100 μL of acetonitrile-water (9:1, v/v) is added to the residue, vortexed and immediately analysed by LCMS/MS. Data from these experiments are expressed as percent of peak area recorded from the LCMS/MS trace at time zero (t0).

For data set [3], the target named is T1, PAR2 (Homo sapiens, UniProt P55085).
T1 sequence (P55085 26-397): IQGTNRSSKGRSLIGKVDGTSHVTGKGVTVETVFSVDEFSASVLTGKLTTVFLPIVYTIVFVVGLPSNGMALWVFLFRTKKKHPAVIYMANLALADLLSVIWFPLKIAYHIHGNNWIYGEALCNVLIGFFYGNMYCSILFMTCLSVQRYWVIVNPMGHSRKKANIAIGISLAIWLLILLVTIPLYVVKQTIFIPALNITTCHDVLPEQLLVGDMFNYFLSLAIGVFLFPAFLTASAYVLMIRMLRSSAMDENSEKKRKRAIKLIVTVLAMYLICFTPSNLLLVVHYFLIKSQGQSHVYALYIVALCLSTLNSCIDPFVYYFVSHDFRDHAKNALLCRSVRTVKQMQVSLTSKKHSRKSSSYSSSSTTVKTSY
Kind of data set: PAR2 agonist inhibition (antagonism): intracellular Ca2+ release in HT29 cells. The format is cell-based. Also noted: endogenous in cells; host or cells: HT29 (human colorectal adenocarcinoma). The conditions noted are these: other ligands; inhibiting Ca2+ release in HT29 cells; 30 min pre-incubation, agonist at EC80. Here is the method:
Cells are seeded overnight in 96-well black walled, clear bottomed, plate at approximately 2×10^4 to 4×10^5 cells per well. […] The cells are then washed twice with HBSS and transferred to a Polarstar spectrofluorimeter (BMG, Durham N.C.).
The cells are prepared as outlined above then treated with the ‘putative’ antagonist 30 min prior to the addition of either trypsin or a synthetic agonist at a concentration equal to the agonists EC80.
The cells were then treated with 1 μM of the PAR2 agonist 2f-LIGRLO-NH2 (FIG. 2A, n=5) or 100 nM Trypsin (FIG. 2B, n=1). Each data point represents mean±SEM. Net changes in fluorescence were calculated as a percentage relative to the maximum response given 1 μM 2f-LIGRLO-NH2 or 100 nM Trypsin. Changes in fluorescence (% response) were plotted against logarithmic compound concentrations. The half maximal inhibitory concentration (IC50) values were derived from the dose response curve using a nonlinear regression curve in Graphpad Prism v5.

Data set [4] deals with T2, PAR2 (Mus musculus, UniProt P55086).
T2 construct: endogenous in cells; host or cells: MIN6 (mouse pancreatic beta cell line)
T2 sequence (P55086 26-399): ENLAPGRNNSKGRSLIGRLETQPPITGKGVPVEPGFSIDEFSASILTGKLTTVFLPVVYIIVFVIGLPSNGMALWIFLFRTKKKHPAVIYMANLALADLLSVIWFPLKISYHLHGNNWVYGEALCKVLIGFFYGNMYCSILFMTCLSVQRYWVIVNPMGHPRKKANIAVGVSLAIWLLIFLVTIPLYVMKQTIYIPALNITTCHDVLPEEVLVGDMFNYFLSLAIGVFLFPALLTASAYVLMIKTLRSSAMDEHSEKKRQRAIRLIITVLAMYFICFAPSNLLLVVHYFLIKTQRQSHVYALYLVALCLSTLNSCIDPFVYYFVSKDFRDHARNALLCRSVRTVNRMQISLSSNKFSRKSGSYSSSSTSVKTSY
Kind of data set: Intracellular calcium mobilization in MIN6 beta cells. In kind it is cell-based. The conditions noted are these: concentration-dependent. Here is the method: Results: Pathogenesis of pancreatic dysfunction is linked to chronic nutritional surplus and elevated fatty acids, so in vivo and in vitro effects of compound 52 were evaluated on rat pancreas and mouse MIN6 beta cells. […] PAR2 agonists and compound 52 were further evaluated in vitro for glucose-stimulated insulin secretion (GSIS) and intracellular calcium mobilization in mouse MIN6 beta cells.
On the technique in general: Calcium assays in cells follow changes in intracellular calcium, usually with a dye or a luminescent sensor.

Data set [5] addresses T1, PAR2. Conditions: cited from earlier work.
Data set [6] concerns TNBS-induced chronic colitis. The experiment in a line: TNBS-induced chronic colitis model. In kind it is in vivo, rat. The conditions noted are these: 52 10 mg/kg/day, sulfasalazine 100 mg/kg/day p.o. Here is the method: On day 0, rats were weighed, given respective treatments of either sulfasalazine (100 mg/kg in olive oil p.o.), compound 52 (10 mg/kg in olive oil), or vehicle (500 l olive oil p.o.), and fasted for 24 h with water supplied ad libitum. The next day (day 1), rats were weighed, dosed with respective compound, and anesthetized with isofluorane. A polyethylene catheter was inserted intrarectally (8 cm). Control and drug-treated animals received an intracolonic dose of TNBS (80 mg/kg in saline and 250 l, 50% ethanol in water) (Fiorucci at al., 2001). Sham animals received vehicle only, with TNBS replaced by equivolume water. Rats were maintained in an inclined position (40°) for 30 min, then allowed to recover with food and water supplied. Rats were dosed daily with the respective compound, weighed, and scored for general health and disease progression. All rats were sacrificed on day 8 of experimentation unless they were sacrificed earlier. Disease progression and post-mortem colonic histopathology was scored by the following methods. PAR2 and tryptase co-localization were investigated by using immunohistochemistry.
DAI for both acute and chronic models was assessed and scored by an expert blinded to treatments. Scores incorporated mobility, gastrointestinal pathology, discomfort, and generalized sickness behaviour criteria (each scored 0-3). Any animal that reached stage 3 in any criteria was euthanized by CO2 inhalation and recorded as a disease-related mortality. Scores were summed and expressed as total disease score (maximum 12). DAI was measured at endpoint only (10 h) in the acute study and daily in the chronic TNBS study.
Colons were dissected post-mortem and given a macroscopic disease score based on that described previously (Bobin-Dubigeon et al., 2001) with some minor alterations (maximal score 14). The entire colon length was removed between the ileocolic and colorectal junction. Length and maximal distension width were measured. Sections of affected colon were taken for biochemical analysis, histology, and wet/dry weight.

On to `CC[C@H](C)[C@H](NC(=O)[C@H](CC1CCCCC1)NC(=O)c1ccno1)C(=O)NCc1ccccc1OC` [Compound 18, 5-isoxazoyl-Cha-Ile-aminomethyl-(2-methoxy)phenyl], for which the “paw swelling induced by 2-f-LIGRLO-NH2” value in data set [1] is recorded as “reduced the paw swelling”. Moreover, the “stability in rat liver homogenate” value in data set [2] is listed as “decomposed to varied degree”.

On to `CC[C@H](C)[C@@H](NC(=O)[C@@H](N)CC1CCCCC1)C(=O)N1CCC2(C=Cc3ccccc32)CC1` [Compound 41], for which, in data set [3], the IC50 was 17 µM.

In data set [3], `CC[C@H](C)[C@H](C(=O)N1CCC2(C=Cc3ccccc32)CC1)N(C)C(=O)[C@@H](N)CC1CCCCC1` [Compound 51] came in with an IC50 of 5 to 10 µM.

In the case of `CC[C@H](C)[C@H](NC(=O)[C@H](CC1CCCCC1)NC(=O)c1ccno1)C(=O)N1CCC(c2ccccc2)CC1` [Compound 30, 5-isoxazoyl-Cha-Ile-(4-phenyl)piperidine], the “paw swelling induced by 2-f-LIGRLO-NH2” value in data set [1] is listed as “reduced the paw swelling”. The “stability in rat liver homogenate” value in data set [2] is “decomposed to varied degree”.

Turning to `CC[C@H](C)[C@@H](NC(=O)[C@H](CC1CCCCC1)NC(=O)C1CCCN1)C(=O)N1CCC2(C=Cc3ccccc32)CC1` (some centres unmarked) [Compound 50], the 50% inhibitory concentration (IC50) in data set [3] amounted to 50 µM. That is a double-digit micromolar value.

Turning to trypsin, in data set [4], the “intracellular calcium release in MIN6 beta cells” value is given as “activated intracellular calcium release”.

`CC[C@H](C)[C@@H](NC(=O)[C@H](CC1CCCCC1)NC(=O)c1c[nH]cn1)C(=O)N1CCC2(C=Cc3ccccc32)CC1` [Compound 47] had an IC50 in data set [3] of 10 µM.

As to 2-furoyl-LIGRL-NH2, in data set [5], the “agonist potency higher than SLIGRL-NH2” value was around 20 fold; the “selectivity among PARs” value was “selective for PAR2 over PAR1 and PAR4”.

Regarding SLIGRL-NH2, the “intracellular calcium release in MIN6 beta cells” value in data set [4] is “activated intracellular calcium release”.

For `CC[C@H](C)[C@@H](NC(=O)[C@H](CC1CCCCC1)NC(=O)c1cc(N)no1)C(=O)N1CCC2(C=Cc3ccccc32)CC1` [Compound 42, 5-(3-amino-isoxazoyl)-Cha-Ile-spiro[indene-1,4′-piperidine]], in data set [1], the “paw swelling induced by 2-f-LIGRLO-NH2” value is reported as “reduced the paw swelling”. Besides, the “stability in rat liver homogenate” value in data set [2] is recorded as “decomposed to varied degree”.

For `O=C(O)c1cc(/N=N/c2ccc(S(=O)(=O)Nc3ccccn3)cc2)ccc1O` [sulfasalazine, reference compound], the TNBS-mediated mortality in data set [6] turned out to be 33.3%. Moreover, the “DAI compared with TNBS-controls” value in data set [6] (from day 2 onward) is reported as “marked improvements in DAI”.

`CC[C@H](C)[C@@H](NC(=O)[C@H](CC1CCCCC1)NC(=O)c1ccno1)C(=O)N1CCC2(CCc3ccccc32)CC1` [Compound 53]: the IC50 in data set [3] stood at 3 µM.

On to `CC[C@H](C)[C@@H](NC(=O)[C@H](CC1CCCCC1)NC(=O)c1cc(C)on1)C(=O)N1CCC2(C=Cc3ccccc32)CC1` [Compound 46], for which, in data set [3], the IC50 came out at 25 µM.

In data set [3], `CC[C@H](C)[C@@H](NC(=O)[C@H](CC1CCCCC1)NC(=O)C1CCNCC1)C(=O)N1CCC2(C=Cc3ccccc32)CC1` [Compound 48] showed an IC50 of 50 µM. This IC50 lies about 2-fold higher than the previous one.

As to `CO[C@H](C)[C@@H](NC(=O)[C@H](CC1CCCCC1)NC(=O)c1ccno1)C(=O)N1CCC2(C=Cc3ccccc32)CC1` [Compound 44, 5-isoxazoyl-Cha-Thr(Me)-spiro[indene-1,4′-piperidine]], in data set [1], the “paw swelling induced by 2-f-LIGRLO-NH2” value is listed as “reduced the paw swelling”. Also, the “stability in rat liver homogenate” value in data set [2] is given as “decomposed to varied degree”.

`CC[C@H](C)[C@@H](NC(=O)[C@H](CC1CCCCC1)NC(=O)C1CCC(=O)N1)C(=O)N1CCC2(C=Cc3ccccc32)CC1` (some centres unmarked) [Compound 49] showed an IC50 in data set [3] of 25 µM.

Turning to `CC[C@H](C)[C@@H](NC(=O)[C@H](CC1CCCCC1)NC(=O)c1nc[nH]n1)C(=O)N1CCC2(C=Cc3ccccc32)CC1` [Compound 45], the IC50 in data set [3] was determined as 15 µM.

One may read the IC50 as the concentration that inhibits the measured activity by half.
